Laboratory results published in ChEMBL document CHEMBL1201862, “PubChem BioAssay data set” (2004).
Each block holds one compound with its values, some of them ahead of it. Active and inactive are the calls of the source.

What was measured:
[1] = target: T1, Oxysterols receptor LXR-beta (Homo sapiens, UniProt P55055); assay type: functional, cell-based;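 further: Cell-based luminescence dose-response assay of agonist activity at LXR, run as a confirmatory counterscreen to a daf-12 agonist screen; HEK293 cells with Gal4-LXR fusion and GAL4-driven luciferase reporter; agonist potency from rising luciferase signal of a Gal4-LXR reporter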
T1 sequence (P55055 whole entry): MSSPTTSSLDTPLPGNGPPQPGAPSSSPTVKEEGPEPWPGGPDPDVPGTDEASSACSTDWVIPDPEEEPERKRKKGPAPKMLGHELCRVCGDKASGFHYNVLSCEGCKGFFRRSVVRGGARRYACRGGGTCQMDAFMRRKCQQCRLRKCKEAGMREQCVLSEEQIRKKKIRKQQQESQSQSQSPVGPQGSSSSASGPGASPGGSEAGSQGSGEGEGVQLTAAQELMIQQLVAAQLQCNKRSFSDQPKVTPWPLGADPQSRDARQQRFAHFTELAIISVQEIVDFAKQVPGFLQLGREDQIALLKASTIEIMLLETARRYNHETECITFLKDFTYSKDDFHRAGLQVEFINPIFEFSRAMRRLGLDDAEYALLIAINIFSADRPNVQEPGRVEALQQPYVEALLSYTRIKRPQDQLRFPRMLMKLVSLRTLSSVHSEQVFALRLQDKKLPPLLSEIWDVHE

Cysteine protease ATG4B = target: T2, Cysteine protease ATG4B (Homo sapiens, UniProt Q9Y4P1); assay type: functional;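 further: Fluorescence-based dose-response confirmation assay measuring inhibition of ATG4B activity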
T2 sequence (Q9Y4P1 whole entry): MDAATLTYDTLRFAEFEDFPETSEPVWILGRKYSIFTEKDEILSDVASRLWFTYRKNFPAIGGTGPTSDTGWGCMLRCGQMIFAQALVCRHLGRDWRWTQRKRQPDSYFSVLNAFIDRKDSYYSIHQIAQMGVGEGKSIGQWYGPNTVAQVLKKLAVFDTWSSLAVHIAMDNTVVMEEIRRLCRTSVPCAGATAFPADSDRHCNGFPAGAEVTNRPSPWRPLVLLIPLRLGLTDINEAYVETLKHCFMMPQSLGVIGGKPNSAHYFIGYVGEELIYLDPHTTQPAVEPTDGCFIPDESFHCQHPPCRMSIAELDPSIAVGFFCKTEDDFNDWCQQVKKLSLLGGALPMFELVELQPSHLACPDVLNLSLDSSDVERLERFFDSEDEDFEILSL

Phospholipase A2 = Phospholipase A2 (Homo sapiens, UniProt P04054); assay type: functional;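 further: confirmatory dose-response counterscreen on phospholipase A2, testing hits that came from an ultra-high-throughput screen for ATG4B inhibitors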
Phospholipase A2, sequence (P04054 whole entry): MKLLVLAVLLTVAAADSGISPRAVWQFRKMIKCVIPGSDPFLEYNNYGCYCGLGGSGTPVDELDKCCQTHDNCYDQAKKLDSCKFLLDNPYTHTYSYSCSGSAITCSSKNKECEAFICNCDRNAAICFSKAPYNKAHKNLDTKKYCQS

Genome polyprotein = Genome polyprotein (dengue virus type 2, UniProt P29990); experiment: Dengue-2 NS5 methyltransferase inhibitors, primary screen, biochemical, confirmation dose response (AID 588689); assay type: functional
Genome polyprotein, sequence (P29990 2492-3391 limits assumed): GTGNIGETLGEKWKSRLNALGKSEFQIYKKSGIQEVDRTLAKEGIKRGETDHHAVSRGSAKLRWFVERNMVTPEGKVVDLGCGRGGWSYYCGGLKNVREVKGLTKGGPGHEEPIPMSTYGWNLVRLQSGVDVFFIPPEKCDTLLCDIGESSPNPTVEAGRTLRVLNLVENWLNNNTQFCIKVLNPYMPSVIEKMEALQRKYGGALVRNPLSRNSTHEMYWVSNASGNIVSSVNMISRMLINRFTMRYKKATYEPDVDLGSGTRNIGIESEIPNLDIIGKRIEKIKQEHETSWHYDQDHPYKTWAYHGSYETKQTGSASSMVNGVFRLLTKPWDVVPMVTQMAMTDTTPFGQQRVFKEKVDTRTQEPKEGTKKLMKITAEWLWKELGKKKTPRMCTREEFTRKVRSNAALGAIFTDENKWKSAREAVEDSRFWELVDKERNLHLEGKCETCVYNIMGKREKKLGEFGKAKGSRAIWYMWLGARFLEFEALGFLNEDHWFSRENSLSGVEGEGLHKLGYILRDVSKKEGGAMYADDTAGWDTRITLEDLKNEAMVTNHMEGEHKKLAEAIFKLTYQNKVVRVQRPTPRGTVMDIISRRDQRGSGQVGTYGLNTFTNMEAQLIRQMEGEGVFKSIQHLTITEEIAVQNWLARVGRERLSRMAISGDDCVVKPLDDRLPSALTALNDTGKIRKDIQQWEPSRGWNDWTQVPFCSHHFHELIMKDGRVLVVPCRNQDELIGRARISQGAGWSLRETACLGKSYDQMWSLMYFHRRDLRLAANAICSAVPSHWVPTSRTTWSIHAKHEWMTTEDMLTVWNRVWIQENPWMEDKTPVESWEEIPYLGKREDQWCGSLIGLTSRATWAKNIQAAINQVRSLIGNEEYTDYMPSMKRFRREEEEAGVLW

Cytochrome P450 3A4 [2] = target: T3, Cytochrome P450 3A4 (Homo sapiens, UniProt P08684);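 further: CYP3A4 tested as one member of a cytochrome P450 panel screen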
T3 sequence (P08684 whole entry, the tested form may be a part): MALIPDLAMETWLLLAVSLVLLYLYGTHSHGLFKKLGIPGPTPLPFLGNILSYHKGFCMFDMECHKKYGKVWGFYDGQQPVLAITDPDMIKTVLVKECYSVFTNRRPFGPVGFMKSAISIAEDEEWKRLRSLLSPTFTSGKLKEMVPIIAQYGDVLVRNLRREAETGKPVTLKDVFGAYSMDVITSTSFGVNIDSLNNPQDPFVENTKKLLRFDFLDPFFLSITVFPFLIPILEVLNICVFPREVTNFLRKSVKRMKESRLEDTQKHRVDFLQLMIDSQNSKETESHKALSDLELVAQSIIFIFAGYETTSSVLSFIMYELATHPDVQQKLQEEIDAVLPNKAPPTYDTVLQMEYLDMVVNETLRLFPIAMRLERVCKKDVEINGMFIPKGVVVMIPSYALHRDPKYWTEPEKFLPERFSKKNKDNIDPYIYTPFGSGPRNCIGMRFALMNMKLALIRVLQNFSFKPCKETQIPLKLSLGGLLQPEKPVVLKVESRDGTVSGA

[3] = inhibitors of HIV Env-driven cell fusion, dose response, cherry-pick (AID 652057); assay type: functional, cell-based
[4] = ZM109 Env clade C HIV-1 fusion inhibitors, dose response, HeLa effector, CEM target cells, luciferase, cherry-pick (AID 652058); assay type: functional, cell-based
[5] = off-target signal loss in HeLa-CEM21 co-culture – HeLa F-luc CTL cells, cherry-picked, counter-screen for HIV-1 Env fusion inhibitor project, dose response (AID 652040); assay type: functional, cell-based;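 further: potency for signal decrease marking cytotoxic or nonspecific inhibition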
[6] = inhibitors of clade B AD8 Env fusion, dose response, cell-based, cherry-pick (AID 652062); assay type: functional;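 further: luciferase signal from cell-cell fusion driven by HIV-1 clade B AD8 Env; potency is for inhibitors of fusion seen as a drop in luminescence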
Paired box protein Pax-8 = Paired box protein Pax-8 (Homo sapiens, UniProt Q06710); experiment: inhibitors of PAX8-driven TPO luciferase reporter, dose response, RMG-I cells, cherry-pick (AID 687027); assay type: functional, cell-based;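 further: luciferase reporter driven by Pax8 target thyroperoxidase promoter measured by SteadyGlo luminescence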
Paired box protein Pax-8, sequence (Q06710 whole entry): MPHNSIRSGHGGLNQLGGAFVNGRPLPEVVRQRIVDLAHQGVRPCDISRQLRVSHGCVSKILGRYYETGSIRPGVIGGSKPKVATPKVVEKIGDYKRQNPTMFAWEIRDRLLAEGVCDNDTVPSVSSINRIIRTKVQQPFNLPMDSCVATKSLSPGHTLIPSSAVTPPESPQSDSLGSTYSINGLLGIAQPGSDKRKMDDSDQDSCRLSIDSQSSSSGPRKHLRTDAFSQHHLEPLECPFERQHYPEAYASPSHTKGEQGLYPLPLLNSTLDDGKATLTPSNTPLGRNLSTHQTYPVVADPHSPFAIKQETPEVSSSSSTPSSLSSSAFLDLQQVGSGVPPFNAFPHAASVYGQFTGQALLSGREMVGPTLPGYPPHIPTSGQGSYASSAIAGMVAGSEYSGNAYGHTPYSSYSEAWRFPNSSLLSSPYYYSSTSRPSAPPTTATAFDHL

[7] = cytotoxicity in OVCAR8 ovarian cancer cells, dose response, PAX8 project, cell-based, plate reader, dry powder samples (AID 743197); assay type: functional; settings: OVCAR-8
[8] = target: T4, Carboxy-terminal domain RNA polymerase II polypeptide A small phosphatase 1 (Homo sapiens, UniProt Q9GZU7); experiment: inhibitors of CTDSP1, concentration-response testing, biochemical assay, absorbance-based, actives from ultra-high-throughput screening (AID 540297); assay type: functional
T4 sequence (Q9GZU7 whole entry): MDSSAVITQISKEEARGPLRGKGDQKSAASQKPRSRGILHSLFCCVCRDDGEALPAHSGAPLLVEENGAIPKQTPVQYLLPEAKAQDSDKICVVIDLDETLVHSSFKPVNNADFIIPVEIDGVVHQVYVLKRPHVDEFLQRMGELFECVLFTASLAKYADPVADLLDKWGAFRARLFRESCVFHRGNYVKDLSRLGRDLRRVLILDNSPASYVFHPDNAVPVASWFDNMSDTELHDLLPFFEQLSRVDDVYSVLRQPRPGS

Cytochrome P450 2C19 = Cytochrome P450 2C19 (Homo sapiens, UniProt P33261); experiment: Cytochrome panel assay with activity outcomes. Panel member name: p450-cyp2c19 Compounds with AC50 equal or less than 10 uM are considered active; assay type: functional; settings: read-out: AC50
Cytochrome P450 2C19, sequence (P33261 whole entry): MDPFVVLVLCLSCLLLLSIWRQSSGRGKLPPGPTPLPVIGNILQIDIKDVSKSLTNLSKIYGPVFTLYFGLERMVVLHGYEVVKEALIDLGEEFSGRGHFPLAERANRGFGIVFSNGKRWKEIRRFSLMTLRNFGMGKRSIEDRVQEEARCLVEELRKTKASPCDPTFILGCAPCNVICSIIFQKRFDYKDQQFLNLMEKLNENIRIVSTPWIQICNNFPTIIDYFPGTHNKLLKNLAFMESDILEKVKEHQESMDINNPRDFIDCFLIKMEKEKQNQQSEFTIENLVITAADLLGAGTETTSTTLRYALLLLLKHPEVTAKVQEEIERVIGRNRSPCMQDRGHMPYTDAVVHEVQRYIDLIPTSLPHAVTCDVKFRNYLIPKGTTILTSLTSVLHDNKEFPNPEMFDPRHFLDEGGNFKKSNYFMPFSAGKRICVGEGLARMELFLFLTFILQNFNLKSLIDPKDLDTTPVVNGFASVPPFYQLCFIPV

[9] = target: T5, Rac GTPase-activating protein 1 (Homo sapiens, UniProt Q9H0H5); experiment: MgcRacGAP GTPase-activating activity inhibitors, confirmation, biochemical, ADP Hunter fluorescence, primary and confirmatory (AID 624330); assay type: functional
T5 sequence (Q9H0H5 whole entry): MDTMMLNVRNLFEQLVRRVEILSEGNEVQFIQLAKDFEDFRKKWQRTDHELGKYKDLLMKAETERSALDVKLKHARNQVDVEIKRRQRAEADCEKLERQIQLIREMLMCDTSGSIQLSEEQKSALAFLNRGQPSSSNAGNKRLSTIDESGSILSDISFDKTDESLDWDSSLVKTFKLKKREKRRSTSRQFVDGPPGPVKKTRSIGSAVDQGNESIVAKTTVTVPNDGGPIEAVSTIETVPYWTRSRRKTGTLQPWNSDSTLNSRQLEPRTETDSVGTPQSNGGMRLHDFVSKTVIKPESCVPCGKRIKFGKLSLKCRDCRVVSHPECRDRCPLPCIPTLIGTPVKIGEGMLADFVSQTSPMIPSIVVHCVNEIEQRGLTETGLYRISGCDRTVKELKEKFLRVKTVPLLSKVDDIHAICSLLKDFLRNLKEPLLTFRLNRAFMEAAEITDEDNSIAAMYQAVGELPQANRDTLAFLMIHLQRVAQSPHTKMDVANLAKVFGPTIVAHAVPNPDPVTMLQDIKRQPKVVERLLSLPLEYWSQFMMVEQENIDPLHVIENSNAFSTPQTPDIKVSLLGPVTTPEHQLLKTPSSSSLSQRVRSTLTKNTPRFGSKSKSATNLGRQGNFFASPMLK

Cytochrome P450 2D6 = Cytochrome P450 2D6 (Homo sapiens, UniProt P10635);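 further: CYP2D6 member of a cytochrome P450 panel assay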
Cytochrome P450 2D6, sequence (P10635 whole entry): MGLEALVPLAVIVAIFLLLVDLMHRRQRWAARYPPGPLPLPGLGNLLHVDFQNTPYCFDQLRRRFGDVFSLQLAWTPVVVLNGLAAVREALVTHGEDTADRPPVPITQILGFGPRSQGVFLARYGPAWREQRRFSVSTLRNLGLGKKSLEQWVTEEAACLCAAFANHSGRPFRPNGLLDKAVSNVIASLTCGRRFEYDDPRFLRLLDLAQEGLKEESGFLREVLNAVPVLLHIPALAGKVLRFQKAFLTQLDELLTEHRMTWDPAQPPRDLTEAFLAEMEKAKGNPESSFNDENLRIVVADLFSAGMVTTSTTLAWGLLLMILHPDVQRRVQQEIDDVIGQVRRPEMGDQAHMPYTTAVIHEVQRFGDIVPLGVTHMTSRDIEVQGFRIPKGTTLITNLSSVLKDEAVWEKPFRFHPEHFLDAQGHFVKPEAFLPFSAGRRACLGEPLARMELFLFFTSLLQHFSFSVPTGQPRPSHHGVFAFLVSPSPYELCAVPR

Cytochrome P450 3A4 [10] = target: T3, Cytochrome P450 3A4; remark: listed apart in the source
Cytochrome P450 2C9 = Cytochrome P450 2C9 (Homo sapiens, UniProt P11712)
Cytochrome P450 2C9, sequence (P11712 whole entry): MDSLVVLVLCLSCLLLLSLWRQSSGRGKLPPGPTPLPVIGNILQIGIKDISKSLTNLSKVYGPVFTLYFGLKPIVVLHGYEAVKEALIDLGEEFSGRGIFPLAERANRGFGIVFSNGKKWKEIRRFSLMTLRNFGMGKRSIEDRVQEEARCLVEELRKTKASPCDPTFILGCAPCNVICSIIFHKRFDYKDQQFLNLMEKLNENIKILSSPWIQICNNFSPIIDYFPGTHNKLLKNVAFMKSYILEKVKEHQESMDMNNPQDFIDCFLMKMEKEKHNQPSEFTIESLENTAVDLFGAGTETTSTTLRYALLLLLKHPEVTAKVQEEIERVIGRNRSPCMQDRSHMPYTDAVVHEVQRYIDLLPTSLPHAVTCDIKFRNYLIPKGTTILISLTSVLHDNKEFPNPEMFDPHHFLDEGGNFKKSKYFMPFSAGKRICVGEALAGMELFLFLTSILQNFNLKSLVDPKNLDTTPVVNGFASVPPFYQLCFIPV

Compound: O=C(COc1ccccc1Cl)Nc1ccc(Cl)cn1
EC50 [1]: > 67.5 µM (inactive) | EC50 (cells): > 67.5 µM (inactive)

IC50 (Cysteine protease ATG4B): 11.3 µM (active) | IC50 (Phospholipase A2): 9.57 µM (active)
Compound: COc1cc(NS(=O)(=O)c2ccc(Nc3nc(-c4cccc([N+](=O)[O-])c4)cs3)cc2)nc(OC)n1

IC50 (Genome polyprotein): 56.3 µM (active)
Compound: CCOc1cc(/C=C2/SC(=S)N(CC(=O)O)C2=O)ccc1OC(=O)c1cccs1

AC50 (Cytochrome P450 3A4 [2]): inconclusive
Compound: c1ccc2c(CSCCc3ccncc3)cccc2c1

Compound: C=CCN([C@@H](CC(C)C)C(=O)OC)S(=O)(=O)N(CC=C)[C@@H](CC(C)C)C(=O)OC
AC50 [3]: 6.72 µM (active) | AC50 [4]: 24.7 µM (active) | AC50 [5]: 21 µM (active) | AC50 [6]: 25.9 µM (active)

Compound: C[C@H](CO)N1C[C@H](C)[C@H](CN(C)Cc2ccc(-c3ccccc3)cc2)Oc2ccc(NS(=O)(=O)c3ccc(F)cc3)cc2CC1=O
AC50 (Paired box protein Pax-8): 27.1 µM (active) | AC50 [7]: > 70 µM (inactive)

Compound: C[C@@H]1CCCCO[C@H](CN(C)Cc2ccc3c(c2)OCO3)[C@@H](C)CN([C@@H](C)CO)C(=O)c2cc(NS(=O)(=O)c3ccc(Cl)cc3)ccc2O1
AC50 (Paired box protein Pax-8): 9.45 µM (active) | AC50 [7]: > 70 µM (inactive)

IC50 [8]: 9.59 µM (active)
Compound: O=C(N/N=C/c1ccco1)C1CC1c1ccccc1 (centres undefined)

Compound: C/C(=N\Nc1nc2ccccc2s1)c1cccs1
EC50 [1]: > 67.5 µM (inactive) | EC50 (cells): > 67.5 µM (inactive)

IC50 (Cysteine protease ATG4B): 5.45 µM (active) | IC50 (Phospholipase A2): 5.12 µM (active)
Compound: CCOC(=O)c1c(NC=C2C(=O)CC(C)(C)CC2=O)sc(C)c1C

AC50 (Cytochrome P450 2C19): 25.1 µM (inconclusive) | IC50 [9]: 108 µM (active) | AC50 (Cytochrome P450 2D6): 25.1 µM (inconclusive) | AC50 (Cytochrome P450 3A4 [10]): 25.1 µM (inconclusive) | AC50 (Cytochrome P450 2C9): inconclusive
Compound: Cc1cc(C(=O)c2cnc(/N=C/N(C)C)s2)cc(C)c1O
